Data published in patent publication US10221139B2, “Inhibitors of histone demethylases” (Gilead Sciences, Inc., priority 2012, dated 2019).

Experiments:
Assay type in all cases: biochemical
UTX (KDM6A) = molecular target: T1, UTX (KDM6A) (Homo sapiens, UniProt O15550); test: Histone lysine demethylase AlphaLISA assay, UTX; conditions: substrate BK27M3
T1 construct: 919-1401; host or cells: E. coli
Method: (§1) Example 2: Histone Lysine Demethylase AlphaLISA Assays for IC50 Value Determination
(§2) Assays are performed analogously to the protocol described by Perkin Elmer (Roy et al. Perkin Elmer Technical Note: AlphaLISA #12, April 2011).
(§3) Enzymes are dissolved in enzyme buffer and incubated for 10 min before 5 μL is added to 5 μL 3% DMSO solutions of compounds in enzyme buffer. Incubated for another 10 minutes, before 5 μL substrate solution is added and the reaction mixture is incubated at room temperature for the given period. 10 μL acceptor beads, suspended at given dilutions in Epigenetic Buffer (Perkin Elmer AL008) from stock, are added and the suspension is incubated 60 minutes in the dark at room temperature, before 10 μL suspension (at the given dilutions in Epigenetic Buffer) of streptavidin donor beads (Perkin Elmer 6760002) in Epigenetic Buffer is added. After incubation at room temperature in the dark the plates are read. Reaction conditions are seen in Table 2b.

GASC1 (KDM4C, JMJD2C) = molecular target: T2, GASC1 (KDM4C, JMJD2C) (Homo sapiens, UniProt Q9H3R0); test: Histone lysine demethylase AlphaLISA assay, GASC1; conditions: substrate BK9M3
T2 construct: 1-349; host or cells: E. coli
T2 sequence (Q9H3R0 1-349): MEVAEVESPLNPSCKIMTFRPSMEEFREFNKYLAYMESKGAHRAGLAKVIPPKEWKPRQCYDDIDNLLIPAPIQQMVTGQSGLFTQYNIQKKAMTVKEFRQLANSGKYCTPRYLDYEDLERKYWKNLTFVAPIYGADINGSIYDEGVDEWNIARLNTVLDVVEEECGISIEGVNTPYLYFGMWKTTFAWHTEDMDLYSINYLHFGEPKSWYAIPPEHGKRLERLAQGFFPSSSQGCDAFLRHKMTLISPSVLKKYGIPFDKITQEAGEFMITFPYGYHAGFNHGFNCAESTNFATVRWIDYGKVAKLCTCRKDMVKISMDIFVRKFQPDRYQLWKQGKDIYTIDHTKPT
Method: as §1, §2, §3

PLU1 (KDM5B) = molecular target: T3, PLU1 (KDM5B) (Homo sapiens, UniProt Q9UGL1); test: Histone lysine demethylase AlphaLISA assay, PLU1; conditions: substrate H3K4M3B
T3 construct: 1-809; host or cells: E. coli
T3 sequence (Q9UGL1 1-809): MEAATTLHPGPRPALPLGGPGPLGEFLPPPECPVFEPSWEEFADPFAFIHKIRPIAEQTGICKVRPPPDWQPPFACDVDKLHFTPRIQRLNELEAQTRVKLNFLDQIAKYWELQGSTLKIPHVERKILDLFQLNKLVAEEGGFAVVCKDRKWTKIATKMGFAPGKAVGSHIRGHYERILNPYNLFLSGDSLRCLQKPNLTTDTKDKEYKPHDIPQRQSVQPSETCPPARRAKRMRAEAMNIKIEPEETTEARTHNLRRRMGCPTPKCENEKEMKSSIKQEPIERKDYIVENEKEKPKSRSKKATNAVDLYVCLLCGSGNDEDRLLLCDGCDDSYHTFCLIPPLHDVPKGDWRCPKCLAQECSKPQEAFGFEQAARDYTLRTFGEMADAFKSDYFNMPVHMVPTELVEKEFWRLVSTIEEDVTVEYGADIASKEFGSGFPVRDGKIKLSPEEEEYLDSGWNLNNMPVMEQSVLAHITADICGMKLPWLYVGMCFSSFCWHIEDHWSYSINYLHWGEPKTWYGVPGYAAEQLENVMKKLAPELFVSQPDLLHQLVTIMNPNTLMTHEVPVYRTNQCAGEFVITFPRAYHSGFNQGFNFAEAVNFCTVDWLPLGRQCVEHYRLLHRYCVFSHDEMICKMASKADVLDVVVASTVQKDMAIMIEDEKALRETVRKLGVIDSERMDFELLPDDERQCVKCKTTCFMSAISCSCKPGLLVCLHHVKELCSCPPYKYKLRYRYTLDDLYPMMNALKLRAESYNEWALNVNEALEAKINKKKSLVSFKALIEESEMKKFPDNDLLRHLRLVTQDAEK
Method: as §1, §2, §3

T1 sequence (O15550 919-1401): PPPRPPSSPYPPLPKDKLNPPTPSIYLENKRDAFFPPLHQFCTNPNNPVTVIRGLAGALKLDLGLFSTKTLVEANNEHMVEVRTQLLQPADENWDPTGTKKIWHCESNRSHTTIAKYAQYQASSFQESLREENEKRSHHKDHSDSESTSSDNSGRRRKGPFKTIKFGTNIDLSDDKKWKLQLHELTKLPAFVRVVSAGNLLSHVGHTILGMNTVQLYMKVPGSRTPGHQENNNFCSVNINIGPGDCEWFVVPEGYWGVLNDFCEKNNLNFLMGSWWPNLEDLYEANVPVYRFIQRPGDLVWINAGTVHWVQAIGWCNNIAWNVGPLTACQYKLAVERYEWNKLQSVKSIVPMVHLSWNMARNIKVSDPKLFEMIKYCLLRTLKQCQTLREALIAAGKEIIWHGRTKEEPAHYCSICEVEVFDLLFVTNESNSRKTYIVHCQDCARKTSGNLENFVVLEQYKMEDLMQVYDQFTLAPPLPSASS

Molecule	IC50 (UTX (KDM6A))	IC50 (GASC1 (KDM4C, JMJD2C))	IC50 (PLU1 (KDM5B))
2-[({2-[(2S)-1-benzylpyrrolidin-2-yl]ethyl}amino)methyl]pyridine-4-carboxylic acid [#45]	≥ 1000 nM	< 100 nM	< 100 nM
4-methoxyphenyl 2-({[4-(diethylamino)butyl]amino}methyl)pyridine-4-carboxylate [#51]	≥ 1000 nM	100 to 1000 nM	< 100 nM
O=C(O)c1ccnc(CNC[C@@H](O)CO)c1 [#3, 2-({[(2R)-2,3-dihydroxypropyl]amino}methyl)pyridine-4-carboxylic acid]	≥ 1000 nM	100 to 1000 nM	< 100 nM
O=C(O)c1ccnc(CNCC2CC2)c1 [#4, 2-{[(cyclopropylmethyl)amino]methyl}pyridine-4-carboxylic acid]	≥ 1000 nM	100 to 1000 nM	< 100 nM
CN(C)CCN(C)Cc1cc(C(=O)O)ccn1 [#6, 2-({[2-(dimethylamino)ethyl](methyl)amino}methyl)pyridine-4-carboxylic acid]	≥ 1000 nM	–	100 to 1000 nM
C#CCN(C)Cc1cc(C(=O)O)ccn1 [#7, 2-{[methyl(prop-2-yn-1-yl)amino]methyl}pyridine-4-carboxylic acid]	≥ 1000 nM	100 to 1000 nM	100 to 1000 nM
O=C(O)c1ccnc(CNCCF)c1 [#8, 2-{[(2-fluoroethyl)amino]methyl}pyridine-4-carboxylic acid]	≥ 1000 nM	100 to 1000 nM	100 to 1000 nM
O=C(O)c1ccnc(CNCc2ccco2)c1 [#9, 2-{[(furan-2-ylmethyl)amino]methyl}pyridine-4-carboxylic acid]	≥ 1000 nM	< 100 nM	–
O=C(O)c1ccnc(CNCc2ccc(-c3ccccc3)o2)c1 [#10, 2-({[(5-phenylfuran-2-yl)methyl]amino}methyl)pyridine-4-carboxylic acid]	≥ 1000 nM	≥ 1000 nM	100 to 1000 nM
CSCCNCc1cc(C(=O)O)ccn1 [#12, 2-({[2-(methylsulfanyl)ethyl]amino}methyl)pyridine-4-carboxylic acid]	≥ 1000 nM	< 100 nM	< 100 nM
COCCN1CCN(C(=O)CNCc2cc(C(=O)O)ccn2)CC1 [#16, 2-[({2-[4-(2-methoxyethyl)piperazin-1-yl]-2-oxoethyl}amino)methyl]pyridine-4-carboxylic acid]	≥ 1000 nM	< 100 nM	< 100 nM
C=CCN(CC=C)C(=O)CNCc1cc(C(=O)O)ccn1 [#17, 2-[({[bis(prop-2-en-1-yl)carbamoyl]methyl}amino)methyl]pyridine-4-carboxylic acid]	≥ 1000 nM	< 100 nM	< 100 nM
O=C(O)c1ccnc(CNCC(=O)N2CCC[C@@H]2CN2CCCC2)c1 [#18, 2-[({2-oxo-2-[(2R)-2-(pyrrolidin-1-ylmethyl)pyrrolidin-1-yl]ethyl}amino)methyl]pyridine-4-carboxylic acid]	≥ 1000 nM	< 100 nM	< 100 nM
CC(C)(C)OC(=O)N1CC[C@@H](NCc2cc(C(=O)O)ccn2)C1 [#19, 2-({[(3R)-1-[(tert-butoxy)carbonyl]pyrrolidin-3-yl]amino}methyl)pyridine-4-carboxylic acid]	≥ 1000 nM	≥ 1000 nM	≥ 1000 nM
O=C(O)c1ccnc(CNCCCNCCCN2CCCC2)c1 [#21, 2-{[(3-{[3-(pyrrolidin-1-yl)propyl]amino}propyl)amino]methyl}pyridine-4-carboxylic acid]	≥ 1000 nM	< 100 nM	< 100 nM
COC(=O)c1ccnc(CNCCCN2CCCC2)c1 [#47, methyl 2-({[3-(pyrrolidin-1-yl)propyl]amino}methyl)pyridine-4-carboxylate]	–	≥ 1000 nM	100 to 1000 nM
CCN(CCN(C)C)C(=O)CNCc1cc(C(=O)Oc2ccc(C(C)(C)C)cc2)ccn1 [#61, 4-tert-butylphenyl 2-{[({[2-(dimethylamino)ethyl](ethyl)carbamoyl}methyl)amino]methyl}pyridine-4-carboxylate]	–	< 100 nM	< 100 nM
CCN(CCN(C)C)C(=O)CNCc1cc(C(=O)OC(C)CC(C)=O)ccn1 (stereo not drawn) [#62, 4-oxopentan-2-yl 2-{[({[2-(dimethylamino)ethyl](ethyl)carbamoyl}methyl)amino]methyl}pyridine-4-carboxylate]	–	< 100 nM	< 100 nM
CCN(CCN(C)C)C(=O)CNCc1cc(C(=O)OC(C)CCNC(=O)C(F)(F)F)ccn1 (stereo not drawn) [#63, 4-(trifluoroacetamido)butan-2-yl 2-{[({[2-(dimethylamino)ethyl](ethyl)carbamoyl}methyl)amino]methyl}pyridine-4-carboxylate]	–	100 to 1000 nM	100 to 1000 nM
CCN(CCN(C)C)C(=O)CNCc1cc(C(=O)OC(CNC(=O)C(F)(F)F)CC(=O)OC(C)C)ccn1 (stereo not drawn) [#73, propan-2-yl 3-(2-{[({[2-(dimethylamino)ethyl](ethyl)carbamoyl}methyl)amino]methyl}pyridine-4-carbonyloxy)-4-(trifluoroacetamido)butanoate]	–	100 to 1000 nM	100 to 1000 nM
CCN(CCN(C)C)C(=O)CNCc1cc(C(=O)OC(CCNC(=O)C(F)(F)F)CC(=O)OC(C)C)ccn1 (stereo not drawn) [#74, propan-2-yl 3-(2-{[({[2-(dimethylamino)ethyl](ethyl)carbamoyl}methyl)amino]methyl}pyridine-4-carbonyloxy)-5-(trifluoroacetamido)pentanoate]	–	100 to 1000 nM	< 100 nM
CCN(CCN(C)C)C(=O)CNCc1cc(C(=O)Nc2ccncc2)ccn1 [#75, 2-{[({[2-(dimethylamino)ethyl](ethyl)carbamoyl}methyl)amino]methyl}-N-(pyridin-4-yl)pyridine-4-carboxamide]	–	100 to 1000 nM	< 100 nM
CCN(CCN(C)C)C(=O)CNCc1cc(C(=O)Nc2nnc(C)o2)ccn1 [#76, 2-{[({[2-(dimethylamino)ethyl](ethyl)carbamoyl}methyl)amino]methyl}-N-(5-methyl-1,3,4-oxadiazol-2-yl)pyridine-4-carboxamide]	–	< 100 nM	< 100 nM
CCN(CCN(C)C)C(=O)CNCc1cc(C(=O)Nc2ccnn2C)ccn1 [#77, 2-{[({[2-(dimethylamino)ethyl](ethyl)carbamoyl}methyl)amino]methyl}-N-(1-methyl-1H-pyrazol-5-yl)pyridine-4-carboxamide]	–	< 100 nM	< 100 nM
O=C(O)c1ccnc(CN2CCCCC2)c1 [#78, 2-(piperidin-1-ylmethyl)pyridine-4-carboxylic acid]	–	≥ 1000 nM	≥ 1000 nM
CCN(CCN(C)C)C(=O)CNCc1cc(C(=O)Nc2ncco2)ccn1 [#84, 2-{[({[2-(dimethylamino)ethyl](ethyl)carbamoyl}methyl)amino]methyl}-N-(1,3-oxazol-2-yl)pyridine-4-carboxamide]	–	< 100 nM	< 100 nM
CCN(CCN(C)C)C(=O)CNCc1cc(C(=O)Oc2c(OC(C)C)cccc2OC(C)C)ccn1 [#85, 2,6-bis(propan-2-yloxy)phenyl 2-{[({[2-(dimethylamino)ethyl](ethyl)carbamoyl}methyl)amino]methyl}pyridine-4-carboxylate]	–	100 to 1000 nM	100 to 1000 nM
CC(C)C[C@@H](C(=O)N1CCCCC1)N(C)Cc1cc(C(=O)O)ccn1 [#93, 2-({methyl[(2S)-4-methyl-1-oxo-1-(piperidin-1-yl)pentan-2-yl]amino}methyl)pyridine-4-carboxylic acid]	–	≥ 1000 nM	≥ 1000 nM
